Consider four compounds from publication PMC11033320, “Activation of p53 signaling and regression of breast and prostate carcinoma cells by spirooxindole-benzimidazole small molecules” (Frontiers in Pharmacology, 2024).

The test system of assay [1] is Ki-67. The experiment in a line: Immunohistochemical detection of Ki-67 in MDA-MB 231 cells. Format: cell-based, human. To be noted: MDA-MB 231, 72 h; untreated 82.425%. Here is the method:
(§1) After trypsinization, the untreated and treated MDA-MB231 cells were centrifuged and washed with PBS buffer and then 10% formalin in PBS was added to cell pellets. The fixed cell specimens were dehydrated in ascending grades of alcohol and immersed in xylene for one hour (three times) followed by impregnation in melted paraffin to from solid paraffin blocks. Then a rotator microtome was used to cut each block into 3-5 μm thick sections that were transferred into positively charge slides. Slides were dried at 60-70°C for 1-2 h then dewaxed by immersion in xylene 3 times and rehydrated in descending grading ethanol. After that slides were incubated in 3% H2O2 for 10 min, washed in PBS buffer twice for 3 min and put in 10 mM citrate buffer […] followed by heating for 10-20 min. After cooling and washing in PBS, slides were separately soaked overnight in primary antibodies (anti-Ki-67 and anti-p53). Slides were washed in PBS, covered with biotinylated goat anti-polyvalent secondary antibody for 10 min and then streptavidin peroxidase was added. After 10 min, substrate of secondary antibody (3,3'-diaminobenzidine) was added followed by washing in PBS and placing in hematoxylin bath for 1-4 min then washing in PBS (1 min) and water (3 min). Percentage of immunostained cells was evaluated by imaging analysis cellSens software of phase contrast microscope (Olympus, Japan).

In assay [2] the test system is p53. Kind of assay: Immunohistochemical detection of p53 in MDA-MB 231 cells. Format: cell-based, human. To be noted: MDA-MB 231, 72 h, compared to untreated cells. Here is the method: as §1
Assay [3] concerns human p53 transcription factor. The experiment in a line: p53 transcription factor activity assay in MDA-MB 231 cells. Format: cell-based. The following applies: treated MDA-MB 231 cells relative to the untreated cells. Here is the method:
The relative fold activation of p53 in the treated MDA-MB 231 cells were quantified using human p53 transcription factor activity assay kit (RayBio, USA). Briefly, 100 µl of lysates of the untreated and treated MDA-MB 231 cells were added to p53 probe-coated 96 wells and incubated for 2 h (these oligonucleotides capture the active p53 in cell lysate). After washing for discarding unbound p53, primary antibody was added to bound p53-DNA complex, incubated for 1 h. Each well was washed then peroxidase-conjugated secondary antibody was added and incubated for 1 h. After washing and incubating with substrate for 30 min, the absorbance was measured at 450 nm.

Assay [4] deals with p21. Kind of assay: Real time PCR p21 gene expression in MDA-MB 231 cells. To be noted: treated MDA-MB 231 cells compared to untreated cells. On the technique in general: Quantitative PCR measures a nucleic acid by following its amplification.
Assay [5] concerns NF-κB. The experiment in a line: Real time PCR NF-κB gene expression in MDA-MB 231 cells. To be noted: treated MDA-MB 231 cells compared to untreated cells.
Assay [6] relates to cyclin D. The experiment in a line: Real time PCR cyclin D gene expression in MDA-MB 231 cells. The following applies: treated MDA-MB 231 cells compared to untreated cells.
Assay [7] has as its system CNS cancer cells (SF-268, SF-295, SF-539, SNB-19, SNB-75, U251). Kind of assay: NCI anticancer screening, CNS cancer subpanel. Format: cell-based, human. The source says:
The compound has been processed according to standard method NCI-60 Human Tumor Cell Lines Screen for organic compound at development therapeutic program (DTP). Requests for access to this national resource can be submitted online at: […]

As for `Cc1ccc([C@@H]2C3CSCN3[C@]3(C(=O)Nc4ccccc43)[C@H]2C(=O)c2nc3ccccc3[nH]2)cc1` (mixture of isomers) [Compound 6d, (3S,6′R)-6'-(1H-Benzo [d]imidazole-2-carbonyl)-7'-(p-tolyl)-3′,6′,7′,7a′-tetrahydro-1′H-spiro [indoline-3.5′-pyrrolo [1,2-c]thiazol]-2-one], in assay [1], the “Ki-67 level (positive immunostaining cells)” value is 3.03%. For the same compound, the “increase of protein level of p53” value in assay [2] came out at 54.7%. In assay [3], the “fold activation of p53 transcription factor” value is given as 6.287 ± 0.254 fold. The “upregulation of p21 expression” value in assay [4] is “greater than three times”. Further, the “expression level of NF-κB” value in assay [5] is on record as “downregulating”. Moreover, the “expression level of cyclin D” value in assay [6] is reported as “downregulating”.
Consider `O=C(c1nc2ccccc2[nH]1)[C@H]1[C@H](c2ccc(Cl)cc2Cl)C2CSCN2[C@]12C(=O)Nc1ccccc12` (stereo partly drawn) [Compound 6g, (3S,6′R)-6'-(1H-Benzo [d]imidazole-2-carbonyl)-7'-(2,4-dichlorophenyl)-3′,6′,7′,7a′-tetrahydro-1′H-spiro [indoline-3.5′-pyrrolo [1,2-c]thiazol]-2-one], for which the “growth inhibition in CNS cancer cells” value in assay [7] is “less than 80%”.
Still for that read-out and setting: the value for `O=C(c1nc2ccccc2[nH]1)[C@H]1[C@H](c2ccc(Br)cc2)C2CSCN2[C@]12C(=O)Nc1ccccc12` (stereo partly drawn) [Compound 6l, (3S,6′R)-6'-(1H-Benzo [d]imidazole-2-carbonyl)-7'-(4-bromophenyl)-3′,6′,7′,7a′-tetrahydro-1′H-spiro [indoline-3.5′-pyrrolo [1,2-c]thiazol]-2-one] was “less than 80%”.
Regarding `O=C(c1nc2ccccc2[nH]1)[C@H]1[C@H](c2ccccc2)C2CSCN2[C@]12C(=O)Nc1ccccc12` (mixture of isomers) [Compound 6a, (3S,6′R)-6'-(1H-benzo [d]imidazole-2-carbonyl)-7′-phenyl-3′,6′,7′,7a′-tetrahydro-1′H-spiro [indoline-3.5′-pyrrolo [1,2-c]thiazol]-2-one], the “Ki-67 level (positive immunostaining cells)” value in assay [1] was found to be 1.18%. The “increase of protein level of p53” value in assay [2] was determined as 60.2%. In addition, the “fold activation of p53 transcription factor” value in assay [3] is recorded as 5.983 ± 0.142 fold. The “expression level of NF-κB” value in assay [5] is listed as “downregulating”. Also, the “expression level of cyclin D” value in assay [6] is “downregulating”.
